The values that follow come from PMC4551797 (PLoS ONE, 2015).

Data set [1] is described as follows: CEREP mini panel (56 assays: enzymes, receptors, ion channels). The settings on record: read-out: IC50s for 56 assays in a CEREP mini panel.
A further data set concerns wild-type mice. The data set can be described thus: Three-day study on GLP-1, PYY and bile weight in wild-type littermates. The settings on record: 100 mg/kg oral BID 3 days, 30 min after last dose.
For data set [2], the system named is C57BL/6 mice. Kind of data set: Three-day study on GLP-1 and gallbladder filling (bile weight). In kind it is in vivo, mouse. As for the experimental part: C57BL/6 mice, Tgr5 KO mice, or their wild-type littermate controls were orally dosed with vehicle or compounds twice per day for 3 days, with overnight fasting performed on the evening of day 2. On the morning of day 3, animals were dosed orally with compounds and then euthanized by CO2 asphyxiation at 30 minutes after the fifth dose. Plasma was collected for analysis of GLP-1 (X-36) amide as mentioned above, followed immediately by incision into the abdominal cavity to remove and weigh bile from the gallbladder.
On the third day, compound was dosed in the morning followed 30 minutes later by measurement of bile filling (A) by use of a needle and syringe and GLP-1 (x-36) amide (B) by cardiac puncture.

In a further data set the test system is HEK-293 cells. The data set can be described thus: cAMP production in untransfected HEK-293 cells (specificity control). The format is cell-based. The following applies: Homo sapiens, HEK293, read-out: cAMP production: no elevation up to. The procedure: (§1) HEK-293 cells were obtained from ATCC and a clonal HEK-293 line overexpressing mouse TGR5 was prepared. Both were maintained in Dulbecco’s modified Eagle’s medium (DMEM) containing 10% fetal bovine serum (FBS) and penicillin /streptomycin. Mouse STC-1 cells were obtained from ATCC under agreement with the Cold Spring Harbor Laboratories and maintained in DMEM containing 10% FBS and penicillin /streptomycin. NCI-H716 cells were obtained from ATCC and were maintained in RPMI-1640 with 10% FBS. NCI-H716 cells were cultured in 96 well plate coated with Matrigel (BD). After 72 hours, cAMP production stimulated with TGR5 agonists was measured using HTRF cAMP assay kit (CISBIO). The level of cAMP in suspensions of STC-1 cells stimulated with increasing concentrations of TGR5 agonists was also determined. […] The production of GLP-1 was determined using a GLP-1 Assay (7–36) amide kit (Mesoscale Discovery) following the manufacturer’s instructions. […]
(§2) Compound 18 is a novel small molecule agonist of TGR5 developed by Eli Lilly and Company (MW = 508.62, Fig 2A). […] In order to determine potency of compound 18 for the mouse and human TGR5 receptor in cells with endogenous levels of receptor, we measured compound 18-stimulated cAMP production and GLP-1 secretion in both mouse (STC-1) and human (NCI-H716) enteroendocrine cell lines, that we have shown to express TGR5 natively (Fig 1). […]
For orientation: Cyclic AMP is a second messenger, typically raised through Gs and lowered through Gi signalling.

The next data set addresses T1, FXR (Homo sapiens, UniProt Q96RI1).
T1 sequence (Q96RI1 1-486): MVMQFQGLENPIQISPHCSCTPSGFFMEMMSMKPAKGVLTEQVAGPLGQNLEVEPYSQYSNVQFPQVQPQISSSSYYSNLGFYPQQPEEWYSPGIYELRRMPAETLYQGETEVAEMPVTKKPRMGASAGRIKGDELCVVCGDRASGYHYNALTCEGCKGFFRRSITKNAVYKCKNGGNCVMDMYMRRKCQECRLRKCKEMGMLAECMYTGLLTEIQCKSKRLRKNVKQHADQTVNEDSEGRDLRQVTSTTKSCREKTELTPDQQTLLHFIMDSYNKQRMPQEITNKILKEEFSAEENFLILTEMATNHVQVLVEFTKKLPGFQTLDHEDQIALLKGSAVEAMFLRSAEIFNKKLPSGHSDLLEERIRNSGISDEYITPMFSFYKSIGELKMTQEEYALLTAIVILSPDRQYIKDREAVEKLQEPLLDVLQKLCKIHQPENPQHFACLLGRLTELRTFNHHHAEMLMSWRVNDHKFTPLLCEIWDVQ
The data set can be described thus: Selectivity: nuclear hormone receptor FXR.

A further data set has as its system NCI-H716 cells. Kind of data set: GLP-1 secretion in NCI-H716 enteroendocrine cells. In kind it is cell-based. The settings on record: Homo sapiens. The procedure: as §1, §2
A further data set deals with GPR40 (Homo sapiens, UniProt O14842). The data set can be described thus: Selectivity: enteroendocrine GPCR GPR40.
Sequence of GPR40 (O14842 whole entry, species assumed): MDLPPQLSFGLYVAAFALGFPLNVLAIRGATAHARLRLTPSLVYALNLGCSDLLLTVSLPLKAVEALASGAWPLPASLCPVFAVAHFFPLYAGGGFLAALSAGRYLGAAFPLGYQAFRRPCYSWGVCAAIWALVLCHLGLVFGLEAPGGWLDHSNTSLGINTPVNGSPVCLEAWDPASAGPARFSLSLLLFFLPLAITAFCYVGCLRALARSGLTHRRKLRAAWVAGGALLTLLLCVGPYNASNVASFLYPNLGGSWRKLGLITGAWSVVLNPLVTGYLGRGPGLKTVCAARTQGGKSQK
Data set [3] relates to C57BL/6 mice. The data set can be described thus: Oral glucose tolerance test, glucose only. The settings on record: oral 1-100 mg/kg tested, glucose 3 g/kg 15 min after compound.
Experimental: For measurement of glucose only, overnight-fasted C57BL/6 mice in a normal light cycle were orally dosed with vehicle or compound, followed by an oral bolus of 3 g/kg glucose at 15 minutes post compound. At 0, 20, 40, 60, and 120 minutes post glucose dose, blood glucose was assessed via glucometers. Resulting raw data was used to generate AUCs. […] At 0, 15, 30, 60, and 120 minutes post glucose dose, blood glucose was assessed via glucometers. Resulting raw data was used to generate AUCs.
Setting [4] is: 1, 3, 10, 30, 100 mg/kg oral BID 3 days, 30 min after last dose.

Regarding `CC(=O)N1CCC(C(C)N(C(=O)COc2cccc3sc4nc(C)cn4c23)c2ccc(F)cc2)CC1` (stereo not shown) [compound 18], the IC50 in data set [1] was > 10 µM. Also, in the data set on wild-type mice, the GLP-1 entry was “significant increase”, the PYY result is “significant increase” and the bile weight result was “significant increase”. Also, in the data set with C57BL/6 mice [2] (setting [4]), the “bile weight (gallbladder filling)” value is “clear dose dependent increase in bile weight” and the “plasma GLP-1 levels” value is reported as “elevated GLP-1 levels”. Moreover, in the data set on C57BL/6 mice [2] (oral BID 3 days), the “doses with significant effects on GLP-1 secretion” value was ≥ 30 mg/kg and the “doses with significant effects on bile weight” value is reported as ≥ 3 mg/kg. Moreover, the EC50 in the data set on HEK-293 cells was > 30 µM. On FXR, the EC50 was > 125 µM. This compound came in with an EC50 in the data set with NCI-H716 cells of 2.66 µM. Besides, on GPR40, the EC50 was > 125 µM. In addition, in the data set with C57BL/6 mice [3], the “doses that reduce glucose excursions in OGTT” value is ≥ 30 mg/kg.
